Ends that are not written are not given here.

We go through two molecules from publication PMC11586334, “Molecular hybridization modification improves the stability and immunomodulatory activity of TP5 peptide” (Frontiers in Immunology, 2024).

For data set [1], the target named is T1, recombinant TLR2 (Homo sapiens, UniProt O60603).
T1 construct: purchased R&D Systems
The data set is described as follows: SPR binding of YTP to immobilized TLR2. As to conditions: ProteOn XPR36, TLR2 immobilized by amino coupling, 25°C, PBS with 1% Tween 20, 1:1 model. The method, then:
[…] (SPR) experiments were conducted using a ProteOn XPR36 instrument (Bio-Rad, Hercules, CA, USA) with a ProteOn GLH sensor chip (Bio-Rad) at 25°C. The running buffer (PBS with 1% Tween 20) was continuously passed into the reaction chamber at 30 μL/min. The SPR sensing chip with recombinant TLR2 (R&D Systems) was immobilized by amino coupling to capture YTP. The binding affinity of YTP to TLR2 was examined using peptide concentrations of […]. The running buffer was injected into the empty channels as a reference. Sensor chip regeneration and desorption were achieved by injecting 10 mM Gly-HCl buffer (pH 2.5) before the next round of analyses. The experimental data were processed using ProteOn manager software (version 2.0). The binding curves were processed for the start injection alignment and baseline. The reference-subtracted sensorgram was then fitted to the curves labeling a homogeneous 1:1 model. Protein surface data were grouped to fit the association (Ka) and dissociation (Kd) rate constants. The symmetry dissociation constant (KD) for the peptide-[…] interaction was evaluated by using the following equation: […]

The subject of data set [2] is RAW264.7 macrophages. The format is cell-based, murine. The method, then: Murine macrophage cells (RAW264.7) were purchased from the Shanghai Cell Bank, the Institute of Cell Biology, China Academy of Sciences and cultured in Dulbecco’s modified Eagle’s medium (DMEM; HyClone, UT, USA). The DMEM medium was supplemented with 10% (v/v) fetal bovine serum (Bioscience) and 1% (v/v) penicillin/streptomycin (HyClone) and maintained at 37°C in a humidified atmosphere (5% CO2, 95% air).
RAW264.7 viability was measured using a Cell Counting Kit-8 (CCK-8) Assay Kit (Dojinbo, Japan). Cells were seeded in 96-well plates at a density of 2 × 10^4 cells/well and treated with or without YW12D, TP5 and YTP peptides (10–80 μg/mL). After incubation for 24 h, the cells were then incubated in CCK-8 reagent for 4 h at 37°C. The absorbance of each well was measured at 450 nm using a 96-well microplate reader. Cell viability was evaluated as follows:
(1) Cell viability (%)=(OD450 (sample)/OD450 (control))×100%

A short description of data set [3]: in vitro. Format: in vitro ADME. As to conditions: rat. The method, then: Rat plasma was collected by centrifuging whole blood from healthy adult rats. YW12D, TP5, and YTP (10 µg/mL) were incubated for different time at 37°C in rat plasma. The samples were collected into prechilled tubes containing 1 mL of acidic acetone (hydrochloric acid/acetone/H2O, 1:40:5) and centrifuged at 2, 000 × g for 20 min at 4°C. The obtained precipitates were dried in vacuum. Then, the dried precipitates were dissolved in 0.5 mL of 1 M acetic acid. The peptide analysis was conducted using HPLC. The half-lives of the peptides were calculated by a logarithm-linear regression analysis of the peptide concentrations.

Data set [4] addresses recombinant TLR2 (Toll-like receptor 2) (UniProt O60603). The data set is described as follows: SPR; ProteOn XPR36, GLH sensor chip; recombinant TLR2 immobilised by amino coupling; YTP passed over at 0, 1.25, 2.5, 5 and 10 (μM in the results, mM in the methods); 25°C; running buffer PBS with 1% Tween 20, 30 μL/min; homogeneous 1:1 model.

T1 sequence (O60603 21-784, species assumed): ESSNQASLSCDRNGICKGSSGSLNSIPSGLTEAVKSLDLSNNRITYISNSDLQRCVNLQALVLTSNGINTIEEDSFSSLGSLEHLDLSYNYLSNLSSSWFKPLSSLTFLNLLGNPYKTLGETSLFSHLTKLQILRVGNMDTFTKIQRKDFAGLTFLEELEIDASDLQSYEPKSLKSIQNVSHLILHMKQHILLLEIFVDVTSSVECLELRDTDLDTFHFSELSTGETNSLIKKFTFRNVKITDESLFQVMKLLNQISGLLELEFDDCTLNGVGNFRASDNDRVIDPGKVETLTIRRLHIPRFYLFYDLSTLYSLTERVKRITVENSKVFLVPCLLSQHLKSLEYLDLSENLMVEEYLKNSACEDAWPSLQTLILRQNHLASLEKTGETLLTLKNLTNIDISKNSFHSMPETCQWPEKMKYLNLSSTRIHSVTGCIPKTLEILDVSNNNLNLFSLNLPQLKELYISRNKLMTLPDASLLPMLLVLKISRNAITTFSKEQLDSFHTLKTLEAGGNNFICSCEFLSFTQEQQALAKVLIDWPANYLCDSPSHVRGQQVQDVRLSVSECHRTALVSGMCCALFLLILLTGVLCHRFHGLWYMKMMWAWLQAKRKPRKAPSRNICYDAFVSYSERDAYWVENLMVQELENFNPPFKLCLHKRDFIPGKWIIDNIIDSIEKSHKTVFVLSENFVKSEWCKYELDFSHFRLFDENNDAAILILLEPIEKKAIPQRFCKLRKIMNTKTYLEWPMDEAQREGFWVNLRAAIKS
Chain of recombinant TLR2 (Toll-like receptor 2) (O60603 21-588): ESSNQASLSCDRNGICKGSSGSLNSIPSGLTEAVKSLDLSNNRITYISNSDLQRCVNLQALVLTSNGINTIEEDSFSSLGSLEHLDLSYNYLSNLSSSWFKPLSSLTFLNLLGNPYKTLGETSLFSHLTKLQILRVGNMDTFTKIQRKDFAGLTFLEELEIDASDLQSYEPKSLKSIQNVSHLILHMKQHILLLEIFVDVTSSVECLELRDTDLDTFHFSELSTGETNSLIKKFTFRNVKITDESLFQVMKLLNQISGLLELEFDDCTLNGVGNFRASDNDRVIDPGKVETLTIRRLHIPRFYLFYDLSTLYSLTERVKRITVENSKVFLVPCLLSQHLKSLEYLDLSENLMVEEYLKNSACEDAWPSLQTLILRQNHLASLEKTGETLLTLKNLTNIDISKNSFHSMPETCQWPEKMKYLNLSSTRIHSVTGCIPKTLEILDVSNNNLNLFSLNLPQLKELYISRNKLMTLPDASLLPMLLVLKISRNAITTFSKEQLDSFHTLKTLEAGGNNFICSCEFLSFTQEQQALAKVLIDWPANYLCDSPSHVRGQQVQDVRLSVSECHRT

In general, half-life refers to the time needed for the level to fall by half in the phase considered. As to YVKLWRMIKFIRRKDVY [YTP], in data set [1], the Ka (association rate constant) was 4.31e+06 M⁻¹ s⁻¹ and the Kd (dissociation rate constant) is 0.0162 s⁻¹. For the same molecule, in data set [2], the “cytotoxicity at high dose” value is recorded as “no significant cytotoxicity”. In addition, the half-life in plasma result in data set [3] was “more than 2 h”. Also, in data set [3] (plasma), the half-life at 10 µg/mL was found to be 2 h.

B1: hybrid peptide YW12D-TP5 (YTP) (peptide)
peptide: YVKLWRMIKFIRRKDVY
What is called Kd is the concentration at which binding is half-saturated. B1: in data set [4], the Kd is 3.76 nM.
